Each structure is given as a SMILES string. Bridge positions count the residues as written; N and C are the ends. Square brackets hold non-standard residues; d marks the D form. Peptide text beside a SMILES is read from it. Phe(4-CF3) = N[C@@H](Cc1ccc(C(F)(F)F)cc1)C(=O)O; Bip = N[C@@H](Cc1ccc(-c2ccccc2)cc1)C(=O)O; NMeF = CN[C@@H](Cc1ccccc1)C(=O)O; NMeE = CN[C@@H](CCC(=O)O)C(=O)O; NMeA = CN[C@@H](C)C(=O)O

Chain of human PCSK9 (Q8NBP7 153-692): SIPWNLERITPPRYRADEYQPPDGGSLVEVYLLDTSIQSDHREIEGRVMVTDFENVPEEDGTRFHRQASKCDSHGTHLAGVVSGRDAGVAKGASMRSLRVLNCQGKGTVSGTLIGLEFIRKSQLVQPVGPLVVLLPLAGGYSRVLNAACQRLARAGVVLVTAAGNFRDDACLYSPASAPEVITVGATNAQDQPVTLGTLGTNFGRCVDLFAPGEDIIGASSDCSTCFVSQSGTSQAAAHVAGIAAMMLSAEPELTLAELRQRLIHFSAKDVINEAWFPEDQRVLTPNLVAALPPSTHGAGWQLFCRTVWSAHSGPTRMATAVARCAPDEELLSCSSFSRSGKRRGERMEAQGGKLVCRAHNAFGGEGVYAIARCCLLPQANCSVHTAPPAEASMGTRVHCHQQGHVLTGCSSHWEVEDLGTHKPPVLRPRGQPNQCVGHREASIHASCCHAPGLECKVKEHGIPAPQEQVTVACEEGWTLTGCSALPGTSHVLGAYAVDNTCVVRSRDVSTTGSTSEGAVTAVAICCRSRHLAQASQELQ
Chain of human PCSK9 (Q8NBP7 31-152 partner limits assumed): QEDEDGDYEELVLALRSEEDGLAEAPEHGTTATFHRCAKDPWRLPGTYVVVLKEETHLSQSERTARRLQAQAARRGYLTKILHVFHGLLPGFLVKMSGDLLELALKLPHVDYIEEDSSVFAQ

The target of the first experiment is human PCSK9 (Homo sapiens, UniProt Q8NBP7). Description: PCSK9 ligand binding assay (TR-FRET): interference with binding of human PCSK9 to human LDLR. To be noted: PCSK9 FRET assay, efficacy (Amax); 0% = DMSO, 100% = 1 uM unlabeled human PCSK9. As to the method:
The activity of cyclic polypeptides according to the disclosure as PCSK9 can be assessed using a time resolved fluorescence resonance energy transfer (TR-FRET) assay. This time resolved fluorescence resonance energy transfer (TR-FRET) assay measures the ability of a cyclic polypeptides of the disclosure to interfere with the binding of human PCSK9 to human LDLR, providing measures of both potency (IC50) and efficacy (Amax).
Solutions of varying concentrations are prepared by diluting a cyclic polypeptide of the disclosure in dimethylsulfoxide (DMSO) and the resulting solutions are pipetted into a plate. DMSO is used as a negative control. An intermediate plate is prepared in by transferring a known amount of each polypeptide solution and of the control from the compound plate into a corresponding well containing assay buffer and mixing thoroughly. A third plate is then prepared to be used for the assay by adding Human PCSK9 Alexa Fluor 647, followed by a known amount of each solution from the intermediate plate. Unlabeled human PCSK9 in assay buffer containing DMSO is used as a positive control for the assay. Following incubation, Human LDLR extracellular domain-Europium Kryptate is added to each well of the assay plate and the resulting mixture is incubated for an additional period of time. The TR-FRET signal is measured and the FRET ratio (FRET/Europium) is used to calculate the IC50 and Amax of the cyclic polypeptides.
The PCSK9 binding of the cyclic polypeptides of the disclosure were measured using a time resolved fluorescence resonance energy transfer (TR-FRET) assay. This time resolved fluorescence resonance energy transfer (TR-FRET) assay measures the ability of a cyclic polypeptide of the disclosure to interfere with the binding of human PCSK9 to human LDLR, providing measures of both potency (IC50) and efficacy (Amax).
• Human PCSK9 • Human PCSK9 Alexa Fluor 647 • Human LDLR extracellular domain-Europium Kryptate • Proxi plate-low volume assay plate (PerkinElmer #6008280) • Greiner V-bottom (Greiner BioOne #781280) • Assay Buffer • 20 mM HEPES, pH 7.5 • 150 mM NaCl • 1 mM CaCl2 • 0.01% v/v Tween20 • 0.01% w/v BSA
A master compound plate was prepared in a Greiner V bottom plate by diluting cyclic polypeptides of the disclosure in dimethylsulfoxide to the correct concentration for the desired top concentration based on the desired final concentration: for a 30 uM final concentration the master plate concentration is 1.5 mM (68 uL DMSO+12 uL 10 mM of a cyclic polypeptide of the disclosure), for a 10 uM final concentration the master plate concentration is 0.5 mM (76 uL DMSO+4 uL 10 mM of a cyclic polypeptide of the disclosure), for a 3 uM final concentration the master plate concentration is 150 uM (69 uL DMSO+1 uL 10 mM a cyclic peptide of the disclosure). These solutions were pipetted into columns 1 and 11 of the compound plate. Threefold serial dilutions were generated in columns 2-10 and 12-20 of the compound plate by transferring 10 uL into 20 μL of DMSO. Columns 21 and 22 of the compound plate were negative controls containing DMSO alone.
An intermediate plate was generated in a Greiner V bottom plate by transferring 8 uL from each well of the master plate into a corresponding well containing 92 μL of assay buffer and mixing thoroughly.
A Proxi plate-low volume assay plate was used for the assay. To all wells of the plate was added 10 μL of 16 nM Human PCSK9 Alexa Fluor 647, followed by 5 uL from the intermediate plate. […] Following a 30 minute incubation, 5 μL of 4 nM Human LDLR extracellular domain-Europium Kryptate was added and the mixture was incubated for an additional 2 hours.
The TR-FRET signal was measured on an EnVision or PheraStar instrument with a […] delay, 330 nm excitation and 665 nm emission (FRET), and 330 nm excitation and 615 nm (Europium). The FRET ratio (FRET/Europium) was used for calculations. […]
On to `CC(C)[C@@H]1NC(=O)[C@H](Cc2ccccc2)NC(=O)CSC[C@@H](C(=O)NCC(N)=O)NC(=O)[C@@H]2CCCN2C(=O)[C@H](CO)NC(=O)[C@H](CC(N)=O)NC(=O)[C@H](CCC(=O)O)N(C)C(=O)[C@H](Cc2ccc(-c3ccccc3)cc2)NC(=O)[C@H](Cc2ccccc2)N(C)C(=O)[C@H](CO)NC(=O)[C@H]([C@@H](C)O)NC(=O)[C@H]([C@@H](C)O)NC(=O)[C@H](CC(=O)O)NC1=O` [Example 1-1] ({CH2CO}-FVDTTS[NMeF][Bip][NMeE]NSPCG-NH2; thioether N-13), for which the Maximum % inhibition is 65%.

Regarding `CC(C)[C@@H]1NC(=O)[C@H](Cc2ccccc2)NC(=O)CSC[C@@H](C(=O)NCC(N)=O)NC(=O)[C@@H]2CCCN2C(=O)[C@H](CCCNC(=N)N)NC(=O)[C@H](CC(=O)O)NC(=O)[C@H](C)N(C)C(=O)[C@H](Cc2ccc(-c3ccccc3)cc2)NC(=O)[C@H](C)N(C)C(=O)[C@H](Cc2ccc(-c3ccccc3)cc2)NC(=O)[C@H]([C@@H](C)O)NC(=O)[C@H]([C@@H](C)O)NC(=O)[C@H](CO)NC1=O` [Example 1-2, Ac*-F-V-S-T-T-B-(N-Me)A-B-(N-Me)A-D-R-P-C*-G-NH2], the Maximum % inhibition is listed as 41%.

In turn, `CC(C)[C@@H]1NC(=O)[C@H](Cc2ccccc2)NC(=O)CSC[C@@H](C(=O)NCC(N)=O)NC(=O)[C@@H]2CCCN2C(=O)[C@H](CO)NC(=O)[C@H](CC(N)=O)NC(=O)[C@H](C)N(C)C(=O)[C@H](Cc2ccc(-c3ccccc3)cc2)NC(=O)[C@H](Cc2ccccc2)N(C)C(=O)[C@H](CO)NC(=O)[C@H]([C@@H](C)O)NC(=O)[C@H]([C@@H](C)O)NC(=O)[C@H](CC(=O)O)NC1=O` [Example 1-3, Ac*-F-V-D-T-T-S-(N-Me)F-B-(N-Me)A-N-S-P-C*-G-NH2] ({CH2CO}-FVDTTS[NMeF][Bip][NMeA]NSPCG-NH2; thioether N-13) showed a Maximum % inhibition of 55%.

Compound `CC(C)[C@@H]1NC(=O)[C@H](Cc2ccccc2)NC(=O)CSC[C@@H](C(=O)NCC(N)=O)NC(=O)[C@@H]2CCCN2C(=O)[C@H](Cc2cnc[nH]2)NC(=O)[C@H](CC(N)=O)NC(=O)[C@H](C)N(C)C(=O)[C@H](Cc2ccc(-c3ccccc3)cc2)NC(=O)[C@H](C)N(C)C(=O)[C@H](Cc2ccc(O)cc2)NC(=O)[C@H]([C@@H](C)O)NC(=O)[C@H](CO)NC(=O)[C@H](CC(=O)O)NC1=O` [Example 1-4, Ac*-F-V-D-S-T-Y-(N-Me)A-B-(N-Me)A-N-H-P-C*-G-NH2] ({CH2CO}-FVDSTY[NMeA][Bip][NMeA]NHPCG-NH2; thioether N-13) had a Maximum % inhibition of 60%.

On to `CC(C)[C@@H]1NC(=O)[C@H](Cc2ccccc2)NC(=O)CSC[C@@H](C(=O)NCC(N)=O)NC(=O)[C@@H]2CCCN2C(=O)[C@H](CO)NC(=O)[C@H](CCC(=O)O)NC(=O)[C@H](C)N(C)C(=O)[C@H](Cc2ccc(-c3ccccc3)cc2)NC(=O)[C@H](Cc2ccccc2)N(C)C(=O)[C@H](CO)NC(=O)[C@H]([C@@H](C)O)NC(=O)[C@H]([C@@H](C)O)NC(=O)[C@H](CC(=O)O)NC1=O` [Example 1-5, Ac*-F-V-D-T-T-S-(N-Me)F-B-(N-Me)A-E-S-P-C*-G-NH2] ({CH2CO}-FVDTTS[NMeF][Bip][NMeA]ESPCG-NH2; thioether N-13), for which the Maximum % inhibition is given as 95%.

As for `CC(C)[C@@H]1NC(=O)[C@H](Cc2ccccc2)NC(=O)CSC[C@@H](C(=O)NCC(N)=O)NC(=O)[C@@H]2CCCN2C(=O)[C@H](CO)NC(=O)[C@H](CCC(=O)O)NC(=O)[C@H](C)N(C)C(=O)[C@H](Cc2ccc(C(F)(F)F)cc2)NC(=O)[C@H](Cc2ccccc2)N(C)C(=O)[C@H](CO)NC(=O)[C@H]([C@@H](C)O)NC(=O)[C@H]([C@@H](C)O)NC(=O)[C@H](CC(=O)O)NC1=O` [Example 1-6, Ac*-F-V-D-T-T-S-(N-Me)F-(p-CF3)F-(N-Me)A-E-S-P-C*-G-NH2] ({CH2CO}-FVDTTS[NMeF][Phe(4-CF3)][NMeA]ESPCG-NH2; thioether N-13), the Maximum % inhibition is 97%.

Turning to `CC(C)[C@@H]1NC(=O)[C@H](Cc2ccccc2)NC(=O)CSC[C@@H](C(=O)NCC(N)=O)NC(=O)[C@@H]2CCCN2C(=O)[C@H](CO)NC(=O)[C@H](CCCCN)NC(=O)[C@H](C)N(C)C(=O)[C@H](Cc2ccc(-c3ccccc3)cc2)NC(=O)[C@H](C)N(C)C(=O)[C@H](CO)NC(=O)[C@H]([C@@H](C)O)NC(=O)[C@H]([C@@H](C)O)NC(=O)[C@H](CC(=O)O)NC1=O` [Example 1-7, Ac*-F-V-D-T-T-S-(N-Me)A-B-(N-Me)A-K-S-P-C*-G-NH2] ({CH2CO}-FVDTTS[NMeA][Bip][NMeA]KSPCG-NH2; thioether N-13), the Maximum % inhibition is 60%.

`CC(C)[C@@H]1NC(=O)[C@H](Cc2ccccc2)NC(=O)CSC[C@@H](C(=O)NCC(N)=O)NC(=O)[C@@H]2CCCN2C(=O)[C@H](CO)NC(=O)[C@H](CC(=O)O)NC(=O)[C@H](C)N(C)C(=O)[C@H](Cc2ccc(-c3ccccc3)cc2)NC(=O)[C@H](C)N(C)C(=O)[C@H](Cc2ccc(-c3ccccc3)cc2)NC(=O)[C@H]([C@@H](C)O)NC(=O)[C@H]([C@@H](C)O)NC(=O)[C@H](CO)NC1=O` [Example 1-8, Ac*-F-V-S-T-T-B-(N-Me)A-B-(N-Me)A-D-S-P-C*-G-NH2] ({CH2CO}-FVSTT[Bip][NMeA][Bip][NMeA]DSPCG-NH2; thioether N-13) displayed a Maximum % inhibition of 58%.

Turning to `CC(C)[C@@H]1NC(=O)[C@H](Cc2ccccc2)NC(=O)CSC[C@@H](C(=O)NCC(N)=O)NC(=O)[C@@H]2CCCN2C(=O)[C@H](CCCNC(=N)N)NC(=O)[C@H](CC(=O)O)NC(=O)[C@H](C)N(C)C(=O)[C@H](Cc2ccc(-c3ccccc3)cc2)NC(=O)[C@H](Cc2ccccc2)N(C)C(=O)[C@H](CO)NC(=O)[C@H]([C@@H](C)O)NC(=O)[C@H]([C@@H](C)O)NC(=O)[C@H](CO)NC1=O` [Example 1-9, Ac*-F-V-S-T-T-S-(N-Me)F-B-(N-Me)A-D-R-P-C*-G-NH2] ({CH2CO}-FVSTTS[NMeF][Bip][NMeA]DRPCG-NH2; thioether N-13), the Maximum % inhibition is given as 35%.

Compound `CC(C)[C@@H]1NC(=O)[C@H](Cc2ccccc2)NC(=O)CSC[C@@H](C(=O)NCC(N)=O)NC(=O)[C@@H]2CCCN2C(=O)[C@H](CO)NC(=O)[C@H](CCC(=O)O)NC(=O)[C@H](C)N(C)C(=O)[C@H](Cc2ccc(-c3ccccc3)cc2)NC(=O)[C@H](C)N(C)C(=O)[C@H](Cc2ccc(-c3ccccc3)cc2)NC(=O)[C@H]([C@@H](C)O)NC(=O)[C@H]([C@@H](C)O)NC(=O)[C@H](CC(=O)O)NC1=O` [Example 1-10, Ac*-F-V-D-T-T-B-(N-Me)A-B-(N-Me)A-E-S-P-C*-G-NH2] ({CH2CO}-FVDTT[Bip][NMeA][Bip][NMeA]ESPCG-NH2; thioether N-13) had a Maximum % inhibition of 90%.

As for `CC(C)[C@@H]1NC(=O)[C@H](Cc2ccccc2)NC(=O)CSC[C@@H](C(=O)NCC(N)=O)NC(=O)[C@@H]2CCCN2C(=O)[C@H](CCCNC(=N)N)NC(=O)[C@H](CCC(=O)O)NC(=O)[C@H](C)N(C)C(=O)[C@H](Cc2ccc(C(F)(F)F)cc2)NC(=O)[C@H](C)N(C)C(=O)[C@H](Cc2ccc(C(F)(F)F)cc2)NC(=O)[C@H]([C@@H](C)O)NC(=O)[C@H]([C@@H](C)O)NC(=O)[C@H](CO)NC1=O` [Example 1-11, Ac*-F-V-S-T-T-(p-CF3)F-(N-Me)A-(p-CF3)F-(N-Me)A-E-R-P-C*-G-NH2] ({CH2CO}-FVSTT[Phe(4-CF3)][NMeA][Phe(4-CF3)][NMeA]ERPCG-NH2; thioether N-13), the Maximum % inhibition is recorded as 55%.

The same experiment, now with this note: TR-FRET; Human PCSK9 Alexa Fluor 647 and Human LDLR extracellular domain-Europium Kryptate.
For the compound `CC(C)[C@@H]1NC(=O)[C@H](Cc2ccccc2)NC(=O)CSC[C@@H](C(=O)NCC(N)=O)NC(=O)[C@@H]2CCCN2C(=O)[C@H](CO)NC(=O)[C@H](CCC(=O)O)NC(=O)[C@H](C)N(C)C(=O)[C@H](Cc2ccc(C(F)(F)F)cc2)NC(=O)[C@H](Cc2ccccc2)N(C)C(=O)[C@H](CO)NC(=O)[C@H]([C@@H](C)O)NC(=O)[C@H]([C@@H](C)O)NC(=O)[C@H](CC(=O)O)NC1=O` [Example 1-6, Ac*-F-V-D-T-T-S-(N-Me)F-(p-CF3)F-(N-Me)A-E-S-P-C*-G-NH2] ({CH2CO}-FVDTTS[NMeF][Phe(4-CF3)][NMeA]ESPCG-NH2; thioether N-13), the IC50 amounted to 12 nM.

`CC(C)[C@@H]1NC(=O)[C@H](Cc2ccccc2)NC(=O)CSC[C@@H](C(=O)NCC(N)=O)NC(=O)[C@@H]2CCCN2C(=O)[C@H](CO)NC(=O)[C@H](CCCCN)NC(=O)[C@H](C)N(C)C(=O)[C@H](Cc2ccc(-c3ccccc3)cc2)NC(=O)[C@H](C)N(C)C(=O)[C@H](CO)NC(=O)[C@H]([C@@H](C)O)NC(=O)[C@H]([C@@H](C)O)NC(=O)[C@H](CC(=O)O)NC1=O` [Example 1-7, Ac*-F-V-D-T-T-S-(N-Me)A-B-(N-Me)A-K-S-P-C*-G-NH2] ({CH2CO}-FVDTTS[NMeA][Bip][NMeA]KSPCG-NH2; thioether N-13) showed a half-maximal inhibitory concentration (IC50) of 410 nM.
